Results from patent publication US5202127A, “Moth-proofing method using trioxane as sole active” (Mitsubishi Gas Chemical Co., Inc., priority 1986, dated 1993).

Tests used:
[1] = test system: larvae of case making clothes moths; assay: killing of case making clothes moth larvae in plugged bottle at 25° C. for 4 hours (Tables 3 and 4); format: in vivo; settings: 10 larvae, chemicals in the solid state, 2 g, 4 hours (Table 4)
Procedure: Granular trioxane containing 1 ppm of formic acid and 2 ppm of formaldehyde was dissolved in various organic solvents at a predetermined concentration to prepare organic liquid insect-proofing agents.
Square absorbent cotton piece having a side of 3 cm, which was impregnated with 2 g of the organic liquid insect-proofing agent, was placed in the bottom portion of a glass bottle having a volume of 500 ml, and an insect cage of a metal net having a diameter of 3 cm, which contained 10 larvae of case making clothes moths having a body length of about 6 mm and a square wool fabric having a side of 3 cm, was secured the absorbent cotton 5 cm apart therefrom. Then, the bottle was plugged and allowed to stand in a thermostat chamber maintained at 25° C. for 4 hours. Then, the cage was taken up and the state of the larvae of case making clothes was checked.
Each of p-dichlorobenzene, naphthalene and dl-camphor was used in the form of a granular reagent. […] One pack of "Mothproofing Agent for Drawers" supplied by Dainippon Jochugiku (corresponding to 12.5 liters) was used as the pyrethroid type chemicals. No chemical was used in Comparative Example 13.

[2] = cited from earlier work
insects = assay: insecticidal force and repellency, general statement; format: in vivo
rats [3] = settings: oral administration to rats; cited from earlier work
mice = settings: cited from earlier work
rats [4] = settings: cited from earlier work
[5] = test system: small fruit flies (drosophila); settings: cited from earlier work
salmonellae = settings: cited from earlier work
[6] = cited from earlier work; remark: listed apart in the source
[7] = test system: larvae of case making clothes moths; assay: test for controlling harmful insects to clothes, case making clothes moth larvae (Table 1); format: in vivo; set-up: key to Eating damage degree after 24 hours: A: no eating damage; B: eating damage was only a trace; C: intermediate between ranks B and D; D: large eating damage (damage in absence of insect-proofing agent); settings: for Number of dead insects after 6 hours / Number of dead insects after 24 hours: 10 case making clothes moth larvae, 500 ml bottle, 24° to 26° C.; for Eating damage degree after 24 hours: wool fabric, case making clothes moth larvae
Procedure: (§1) The solid insect-proofing agent was subjected to the test for controlling harmful insects to clothes.
(§2) A glass bottle having a volume of 500 ml was charged with 10 harmful insects and one square wool fabric piece having a side of 3 cm, and one pellet of the solid insect-proofing agent was placed apart from the wool fabric piece. The bottle was tightly plugged and was allowed to stand in the dark place at a temperature of 24° to 26° C.
(§3) For comparison, commercially available moth-proofing agents, p-dichlorobenzene and naphthalene (each was in the form of a flat disk-shaped pellet having a diameter of 21 mm), were similarly tested, and the test was carried out without using any moth-proofing agent.
(§4) The results of the tests conducted on larvae of case making clothes moths having a body length of about 6 mm as the harmful insects (Example 6 and Comparative Examples 1 to 3) are shown in Table 1, and the results of the test conducted on larvae of varied carpet beetles having a body length of about 4 mm as harmful insects (Example 7 and Comparative Examples 4 to 6) are shown in Table 2.

[8] = test system: larvae of varied carpet beetles; assay: test for controlling harmful insects to clothes, varied carpet beetle larvae (Table 2); format: in vivo; set-up: key to Eating damage degree after 24 hours: A: no eating damage; B: eating damage was only a trace; C: intermediate between ranks B and D; D: large eating damage (damage in absence of insect-proofing agent); settings: for Number of dead insects after 6 hours / Number of dead insects after 24 hours: 10 varied carpet beetle larvae, 500 ml bottle, 24° to 26° C.; for Eating damage degree after 24 hours: wool fabric, varied carpet beetle larvae
Procedure: as §1, §2, §3, §4

[9] = it is said; cited from earlier work

SMILES	Number of Killed Insects [1]	solubility in water [2]	Number of dead insects after 6 hours [7]	Number of dead insects after 24 hours [7]	Eating damage degree after 24 hours [7]	Number of dead insects after 6 hours [8]	Number of dead insects after 24 hours [8]	Eating damage degree after 24 hours [8]	other results
CC1(C)[C@@H]2CC[C@@]1(C)C(=O)C2 (relative stereo) [dl-camphor]	0								
CC12CCC(CC1=O)C2(C)C (stereo not drawn) [camphor]		hardly soluble or is insoluble in water							
C1OCOCO1 [trioxane, 1,3,5-trioxane]		soluble in water							insecticidal force (insects; compared with p-dichlorobenzene): weaker than that of p-dichlorobenzene; repellency to insects (insects; in vivo): sufficient repellency to insects; LD50 (rats [3]): 8,500 mg/kg; mutagenicity (mice): no mutagenicity; mutagenicity (rats [4]): no mutagenicity; mutagenicity [5]: no mutagenicity; mutagenicity (salmonellae): no mutagenicity; solubility in other various organic solvents ([2]; organic solvents other than saturated hydrocarbons): highly soluble; solubility in saturated hydrocarbons ([2]; saturated hydrocarbons): poor; stability in highly acidic aqueous solution ([6]; highly acidic aqueous solution): hydrolyzed; stability in neutral or alkaline aqueous solution ([6]; neutral or alkaline aqueous solution): stable; hydrolyzability ([6]; normal state): very low; stability in air ([6]; normal temperature in air): very stable
Clc1ccc(Cl)cc1 [p-dichlorobenzene]	2	hardly soluble or is insoluble in water	5	10	A	3	9	A	health effects [9]: causes liver troubles, lung granulomata, cataract and dermatitis
c1ccc2ccccc2c1 [naphthalene]	0	hardly soluble or is insoluble in water	0	2	B	0	0	C	
